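In this assay, cells in 96-well plates receive the compound at five concentrations for 48 hours. Endpoints are linearly interpolated between the surrounding concentrations. Here, GI50 denotes the concentration required for 50% inhibition of growth. Definition used: TGI = concentration required for complete inhibition of growth.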
Key:
Test in all cases: NCI anticancer screen, dose series, 48 h; in the data active = GI50 below about 0.43 µM; inactive = the rest
T-47D breast = system: T-47D breast
MOLT-4 leukemia = system: MOLT-4 leukemia
RPMI-8226 leukemia = system: RPMI-8226 leukemia
SW-620 colon = system: SW-620 colon
OVCAR-3 ovarian = system: OVCAR-3 ovarian
BT-549 breast = system: BT-549 breast
SN12C renal = system: SN12C renal
ACHN renal = system: ACHN renal
NCI-H460 lung = system: NCI-H460 lung
MDA-MB-435 = system: MDA-MB-435
UACC-62 melanoma = system: UACC-62 melanoma
M14 melanoma = system: M14 melanoma
PC-3 prostate = system: PC-3 prostate
SNB-75 CNS = system: SNB-75 CNS
SK-MEL-5 melanoma = system: SK-MEL-5 melanoma
SK-MEL-2 melanoma = system: SK-MEL-2 melanoma
TK-10 renal = system: TK-10 renal
MDA-MB-231 breast = system: MDA-MB-231 breast
U251 CNS = system: U251 CNS
MALME-3M melanoma = system: MALME-3M melanoma
KM12 colon = system: KM12 colon
NCI/ADR-RES ovarian = system: NCI/ADR-RES ovarian
HOP-62 NSCLC = system: HOP-62 NSCLC
CAKI-1 renal = system: CAKI-1 renal
SF-295 CNS = system: SF-295 CNS
UACC-257 melanoma = system: UACC-257 melanoma
SK-OV-3 ovarian = system: SK-OV-3 ovarian
MCF7 breast = system: MCF7 breast
HS 578T breast = system: HS 578T breast
SF-539 CNS = system: SF-539 CNS
DU-145 prostate = system: DU-145 prostate
UO-31 renal = system: UO-31 renal
HT29 colon = system: HT29 colon
786-0 renal = system: 786-0 renal
A498 renal = system: A498 renal
SR leukemia = system: SR leukemia
NCI-H522 lung = system: NCI-H522 lung
SK-MEL-28 melanoma = system: SK-MEL-28 melanoma
NCI-H226 lung = system: NCI-H226 lung
IGROV1 ovarian = system: IGROV1 ovarian
SNB-19 CNS = system: SNB-19 CNS
NCI-H23 lung = system: NCI-H23 lung
COLO 205 colon = system: COLO 205 colon
HOP-92 NSCLC = system: HOP-92 NSCLC
CCRF-CEM leukemia = system: CCRF-CEM leukemia
EKVX NSCLC = system: EKVX NSCLC
A549 NSCLC = system: A549 NSCLC
LOX IMVI melanoma = system: LOX IMVI melanoma
K-562 leukemia = system: K-562 leukemia
HCC-2998 colon = system: HCC-2998 colon
HCT-15 colon = system: HCT-15 colon
HL-60(TB) leukemia = system: HL-60(TB) leukemia
SF-268 CNS = system: SF-268 CNS
HCT-116 colon = system: HCT-116 colon
OVCAR-5 ovarian = system: OVCAR-5 ovarian
OVCAR-8 ovarian = system: OVCAR-8 ovarian
OVCAR-4 ovarian = system: OVCAR-4 ovarian

O=C(NCCNC1=CC(=O)c2nc3ccccc3c3ccnc1c23)c1cnccn1
63.4 µM: TGI (KM12 colon)
50.9 µM: TGI (CAKI-1 renal)
24.3 µM: TGI (RPMI-8226 leukemia)
inactive: GI50 (T-47D breast) 44.7 µM | GI50 (MOLT-4 leukemia) 35.7 µM | GI50 (RPMI-8226 leukemia) 1.1 µM | GI50 (SW-620 colon) 24.2 µM | GI50 (OVCAR-3 ovarian) 2.42 µM | GI50 (BT-549 breast) 44.8 µM | GI50 (SN12C renal) 49.5 µM | GI50 (ACHN renal) 32.4 µM | GI50 (NCI-H460 lung) 18.4 µM | GI50 (MDA-MB-435) 14.5 µM | GI50 (UACC-62 melanoma) 73.7 µM | GI50 (M14 melanoma) 40.8 µM | GI50 (PC-3 prostate) 13.1 µM | GI50 (SNB-75 CNS) > 100 µM | GI50 (SK-MEL-5 melanoma) 54.7 µM | GI50 (SK-MEL-2 melanoma) 60.5 µM | GI50 (TK-10 renal) 10.3 µM | GI50 (MDA-MB-231 breast) 58.5 µM | GI50 (U251 CNS) 31 µM | GI50 (MALME-3M melanoma) 18.2 µM | GI50 (KM12 colon) 11.2 µM | GI50 (NCI/ADR-RES ovarian) 96.6 µM | GI50 (HOP-62 NSCLC) 18.9 µM | GI50 (CAKI-1 renal) 15.8 µM | GI50 (SF-295 CNS) 18.9 µM | GI50 (UACC-257 melanoma) 49.3 µM | GI50 (SK-OV-3 ovarian) > 100 µM | GI50 (MCF7 breast) 21.4 µM | GI50 (HS 578T breast) 32.7 µM | GI50 (SF-539 CNS) 51.5 µM | GI50 (DU-145 prostate) 43.8 µM | GI50 (UO-31 renal) 62.4 µM | GI50 (HT29 colon) 33 µM | GI50 (786-0 renal) 36.7 µM | GI50 (A498 renal) > 100 µM | GI50 (SR leukemia) 9.26 µM | GI50 (NCI-H522 lung) 44 µM | GI50 (SK-MEL-28 melanoma) 40.9 µM | GI50 (NCI-H226 lung) 90.7 µM | GI50 (IGROV1 ovarian) 45.2 µM | GI50 (SNB-19 CNS) 42.2 µM | GI50 (NCI-H23 lung) 46.4 µM | GI50 (COLO 205 colon) 52 µM | GI50 (HOP-92 NSCLC) 16.1 µM | GI50 (CCRF-CEM leukemia) 1.94 µM | GI50 (EKVX NSCLC) > 100 µM | GI50 (A549 NSCLC) 36.3 µM | GI50 (LOX IMVI melanoma) 33.9 µM | GI50 (K-562 leukemia) 33.6 µM | GI50 (HCC-2998 colon) 27.6 µM | GI50 (HCT-15 colon) 38 µM | GI50 (HL-60(TB) leukemia) 42.8 µM | GI50 (SF-268 CNS) 31 µM | GI50 (HCT-116 colon) 19.8 µM | GI50 (OVCAR-5 ovarian) > 100 µM | GI50 (OVCAR-8 ovarian) 24.3 µM | GI50 (OVCAR-4 ovarian) 83.7 µM
19.1 µM: TGI (OVCAR-3 ovarian)
> 100 µM: TGI (T-47D breast) | TGI (MOLT-4 leukemia) | TGI (SW-620 colon) | TGI (BT-549 breast) | TGI (SN12C renal) | TGI (ACHN renal) | TGI (NCI-H460 lung) | TGI (UACC-62 melanoma) | TGI (M14 melanoma) | TGI (PC-3 prostate) | TGI (SNB-75 CNS) | TGI (SK-MEL-5 melanoma) | TGI (SK-MEL-2 melanoma) | TGI (MDA-MB-231 breast) | TGI (U251 CNS) | TGI (MALME-3M melanoma) | TGI (NCI/ADR-RES ovarian) | TGI (HOP-62 NSCLC) | TGI (SF-295 CNS) | TGI (UACC-257 melanoma) | TGI (SK-OV-3 ovarian) | TGI (MCF7 breast) | TGI (HS 578T breast) | TGI (SF-539 CNS) | TGI (DU-145 prostate) | TGI (UO-31 renal) | TGI (HT29 colon) | TGI (786-0 renal) | TGI (A498 renal) | TGI (SR leukemia) | TGI (NCI-H522 lung) | TGI (SK-MEL-28 melanoma) | TGI (NCI-H226 lung) | TGI (IGROV1 ovarian) | TGI (SNB-19 CNS) | TGI (NCI-H23 lung) | TGI (COLO 205 colon) | TGI (HOP-92 NSCLC) | TGI (CCRF-CEM leukemia) | TGI (EKVX NSCLC) | TGI (A549 NSCLC) | TGI (LOX IMVI melanoma) | TGI (K-562 leukemia) | TGI (HCC-2998 colon) | TGI (HCT-15 colon) | TGI (HL-60(TB) leukemia) | TGI (SF-268 CNS) | TGI (HCT-116 colon) | TGI (OVCAR-5 ovarian) | TGI (OVCAR-8 ovarian) | TGI (OVCAR-4 ovarian)
63.2 µM: TGI (MDA-MB-435)
37.2 µM: TGI (TK-10 renal)

Source: PubChem BioAssay (NCI)
